Measured values: US12577256B2, “Aryl receptor modulators and methods of making and using the same” (Nogra Pharma Limited, priority 2014, dated 2026)

Experiments:
AhR = target: T1, AhR (Homo sapiens, UniProt P35869); details: cited from earlier work
T1 sequence (P35869 11-848): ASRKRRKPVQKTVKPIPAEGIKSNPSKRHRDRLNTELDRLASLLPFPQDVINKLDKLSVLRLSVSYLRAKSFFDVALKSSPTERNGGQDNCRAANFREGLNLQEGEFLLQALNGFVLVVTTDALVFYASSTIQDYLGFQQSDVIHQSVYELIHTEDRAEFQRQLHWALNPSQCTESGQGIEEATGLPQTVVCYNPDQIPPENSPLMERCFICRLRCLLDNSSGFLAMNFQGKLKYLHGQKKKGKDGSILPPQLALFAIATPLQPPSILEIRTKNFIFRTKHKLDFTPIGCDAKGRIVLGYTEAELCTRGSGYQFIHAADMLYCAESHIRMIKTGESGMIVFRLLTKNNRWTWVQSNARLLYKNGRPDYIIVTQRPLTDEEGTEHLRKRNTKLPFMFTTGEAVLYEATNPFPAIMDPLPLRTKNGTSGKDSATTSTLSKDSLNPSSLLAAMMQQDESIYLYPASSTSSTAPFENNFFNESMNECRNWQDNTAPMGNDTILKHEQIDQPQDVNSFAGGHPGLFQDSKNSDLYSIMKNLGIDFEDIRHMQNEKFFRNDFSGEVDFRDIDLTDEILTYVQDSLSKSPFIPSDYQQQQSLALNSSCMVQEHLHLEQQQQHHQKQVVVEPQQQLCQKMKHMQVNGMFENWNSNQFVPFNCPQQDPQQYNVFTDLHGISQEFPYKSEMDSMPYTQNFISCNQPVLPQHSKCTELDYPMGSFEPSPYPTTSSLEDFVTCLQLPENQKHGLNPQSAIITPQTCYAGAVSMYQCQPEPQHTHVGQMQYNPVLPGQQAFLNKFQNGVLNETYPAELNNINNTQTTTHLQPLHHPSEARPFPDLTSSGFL

[1] = cited from earlier work
IFN-γ = IFN-γ RNA expression in anti-CD3/anti-CD28 stimulated PBMC (real-time PCR); assay type: cell-based, human; details: anti-CD3/anti-CD28, 100, 200 or 400 nM compound, 24 hours, RNA (FIG. 24)
Procedure: (§1) Peripheral blood mononuclear cells (PBMC), isolated from 3 healthy subjects, were isolated by density gradient centrifugation (Lymphoprep; Nycomed Pharma) from 5 mL heparinized blood samples. PBMC were resuspended in RPMI 1640 supplemented with 10% fetal calf serum at a concentration of 1×10^6 cells/mL, cultured in 24-well culture plates (Falcon Plastic) and stimulated with medium alone or anti-CD3/anti-CD28 (Miltenyi Biotec) antibodies with or without 100, 200, or 400 nM of AhR binding compounds (02, 04, 13, 15, 17, or 24), dimethyl sulfoxide or 6-formylindolo[3,2-b]cathazole (Ficz, 200 nM). Total RNA was extracted from cells cultured for 24 hours. For RNA preparation, cells were lysed in 1 mL of guanidium thiocyanate buffer and subjected to phenol/chloroform extraction using TRizol reagent (Invitrigen). The sample obtained was quantitated by absothance at 260 nm and complementary DNA (cDNA) was synthetized from […] of total RNA. cDNA was amplified using the following conditions: denaturation for 1 minute at 95° C.; annealing for 30 seconds at 58° C. for IFN-γ, and 60° C. for f3-actin; and followed by 30 seconds of extension at 72° C. […] IL-22 was evaluated using commercially available TaqMan probes (Applied Biosystems). β-actin (forward (SEQ ID NO. 3) 5′-[…]-3′, reverse (SEQ ID NO.4) 5′-[…]-3′) was used as a housekeeping gene. Gene expression was calculated using the AACt algorithm.

IL-22 = IL-22 RNA expression in anti-CD3/anti-CD28 stimulated PBMC (real-time PCR); assay type: cell-based, human; details: anti-CD3/anti-CD28, 100, 200 or 400 nM compound, 24 hours, RNA (FIG. 24)
Procedure: as §1

## Cc1oncc1C(=O)Nc1ccc(C(F)(F)F)cc1 [Leflunomide]
AhR
  activation of the AhR: activates

## C=CCn1nc(-c2ccc(OC)c(OC)c2)c2cccc(C(F)(F)F)c21 [SGA 360]
[1]
  anti-inflammatory properties in vivo: exhibits anti-inflammatory properties in vivo

## COc1ccc(Cc2nc3ccc(C(F)(F)F)cc3s2)cc1OC [compound 15, 2-(3,4-dimethoxybenzyl)-6-(trifluoromethyl)benzo[d]thiazole]
IFN-γ
  production of IFN-γ: decreasing
IL-22
  production of IL-22: strongly increases

## COc1cc(Nc2nc3ccccc3[nH]2)cc(OC)c1OC [compound 17, N (3,4,5-trimethoxyphenyl)-1H-benzo[d]imidazol-2-amine]
IFN-γ
  production of IFN-γ: decreasing
IL-22
  production of IL-22: strongly increases
